Measurements as given in patent US20230183179A1, “NOVEL CELL METABOLISM MODULATING COMPOUNDS AND USES THEREOF” (CRESCENTA BIOSCIENCES, priority 2020, published 2023).

What was measured:
[1] = molecular target: T1, His6 tagged human recombinant FABP4 (Homo sapiens, UniProt P15090); assay: FABP4 TR-FRET assay: displacement of fluorescent fatty acid BODIPY FL C12; conditions: inhibition of BODIPY FL C12 binding to His6-FABP4; 1.2 μL of 1.085 mM compound in DMSO per well; triplicates, mean percent inhibition
T1 construct: purchased Cayman Chemicals 10009549
T1 sequence (P15090 whole entry): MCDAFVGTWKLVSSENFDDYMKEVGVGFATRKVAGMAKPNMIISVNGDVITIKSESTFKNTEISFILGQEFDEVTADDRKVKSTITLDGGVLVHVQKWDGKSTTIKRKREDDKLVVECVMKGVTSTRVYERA
How it was run: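 TR-FRET displacement of BODIPY FL C12 from His6-FABP4 bound by Tb-anti-His6 antibody, in Tris pH 7.4 buffer with γ-globulins, NP-40 and DTT; compound stock 1.085 mM in DMSO. Read after 10 min at room temperature as 520/615 nm ratio; mean % inhibition versus DMSO from triplicates.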

[2] = system: differentiated 3T3-L1 mouse adipocyte cells; assay: Adipocyte glucose consumption in differentiated 3T3-L1 cells (colorimetric glucose assay of the medium); assay type: cell-based; conditions: 3T3-L1, 24 h, compound 10 μM, loss of glucose from culture medium, mean fold change (compound/DMSO)
How it was run: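 Differentiated 3T3-L1 mouse adipocytes (rosiglitazone/dexamethasone/IBMX/insulin induction, day 11) treated 24 h with compounds at 10 μM, 0.1% DMSO final. Medium glucose measured colorimetrically; consumption taken as glucose loss from medium versus cell-free control, expressed as mean fold change compound/DMSO ±SD.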

CCCCc1ccc2nc(N(C)CC(=O)O)cc(-c3ccccc3O)c2c1 [2-{[6-butyl-4-(2-hydroxyphenyl)quinolin-2-yl](methyl)amino}acetic acid]
inhibition at 1085 µM (stock) [1]: 93.2% | fold induction at 10 µM [2]: 1.19

CCCCc1ccc2nc(N(C)CC(C)C(=O)O)cc(-c3ccccc3)c2c1 (stereo not drawn) [3-[(6-butyl-4-phenylquinolin-2-yl)(methyl)amino]-2-methylpropanoic acid]
inhibition at 1085 µM (stock) [1]: 74.7% | fold induction at 10 µM [2]: 1.34

CCCCc1ccc2nc(N(C)CC(=O)O)cc(-c3ccc(C)cc3)c2c1 [2-{[6-butyl-4-(4-methylphenyl)quinolin-2-yl](methyl)amino}acetic acid]
inhibition at 1085 µM (stock) [1]: 30.8% | fold induction at 10 µM [2]: 1.36

Cc1cccc(CCc2ccc3nc(N(C)CC(=O)O)cc(-c4ccccc4)c3c2)c1 [2-[methyl({6-[2-(3-methylphenyl)ethyl]-4-phenylquinolin-2-yl})amino]acetic acid]
inhibition at 1085 µM (stock) [1]: 50.2% | fold induction at 10 µM [2]: 1.53

CCCCc1ccc2nc(N(C)CC(C)C(=O)O)cc(-c3cccnc3)c2c1 (stereo not drawn) [3-{[6-butyl-4-(pyridin-3-yl)quinolin-2-yl](methyl)amino}-2-methylpropanoic acid]
inhibition at 1085 µM (stock) [1]: 46.4% | fold induction at 10 µM [2]: 1.13

CCCCCCc1ccc2nc(N(CC(=O)O)CC(C)C)cc(-c3ccc(F)cc3)c2c1 [2-{[4-(4-fluorophenyl)-6-hexylquinolin-2-yl](2-methylpropyl)amino}acetic acid]
inhibition at 1085 µM (stock) [1]: 78.7% | fold induction at 10 µM [2]: 1.18

CN(CC(=O)O)c1cc(-c2ccccc2)c2cc(CCc3cccnc3)ccc2n1 [2-[methyl({4-phenyl-6-[2-(pyridin-3-yl)ethyl]quinolin-2-yl})amino]acetic acid]
inhibition at 1085 µM (stock) [1]: 32% | fold induction at 10 µM [2]: 1.41

CN(CC(=O)O)c1cc(-c2ccccc2)c2cc(Cl)ccc2n1 [2-[(6-chloro-4-phenylquinolin-2-yl)(methyl)amino]acetic acid]
inhibition at 1085 µM (stock) [1]: 99.7% | fold induction at 10 µM [2]: 1.14

CCCCCCCCc1ccc2nc(N(CC(=O)O)CC(C)C)cc(-c3ccc(F)cc3)c2c1 [2-{[4-(4-fluorophenyl)-6-octylquinolin-2-yl](2-methylpropyl)amino}acetic acid]
inhibition at 1085 µM (stock) [1]: 68% | fold induction at 10 µM [2]: 1.28

CCCCc1ccc2nc(N(C)CC(=O)O)cc(-c3ccc(C#N)cc3)c2c1 [2-{[6-butyl-4-(4-cyanophenyl)quinolin-2-yl](methyl)amino}acetic acid]
inhibition at 1085 µM (stock) [1]: 16.8% | fold induction at 10 µM [2]: 1.18

CCCCCCc1ccc2nc(N(c3nnn[nH]3)C3CC3)cc(-c3ccccc3)c2c1 [N-cyclopropyl-6-hexyl-4-phenyl-N-(1H-1,2,3,4-tetrazol-5-yl)quinolin-2-amine]
inhibition at 1085 µM (stock) [1]: 84% | fold induction at 10 µM [2]: 1.18

O=C1NC(=O)C(Cc2cc(-c3ccccc3)c3cc(CCc4ccccc4)ccc3n2)S1 (stereo not drawn) [5-{[4-phenyl-6-(2-phenylethyl)quinolin-2-yl]methyl}-1,3-thiazolidine-2,4-dione]
inhibition at 1085 µM (stock) [1]: 73.5% | fold induction at 10 µM [2]: 1.45

CCCc1ccc2nc(OCC(=O)O)cc(-c3cccc(C(N)=O)c3)c2c1 [2-{[4-(3-carbamoylphenyl)-6-propylquinolin-2-yl]oxy}acetic acid]
inhibition at 1085 µM (stock) [1]: 42.9% | fold induction at 10 µM [2]: 1

CCCCCCc1ccc2nc(OC(C)C(=O)O)cc(-c3cccc(C#N)c3)c2c1 (stereo not drawn) [2-{[4-(3-cyanophenyl)-6-hexylquinolin-2-yl]oxy}propanoic acid]
inhibition at 1085 µM (stock) [1]: 3.3% | fold induction at 10 µM [2]: 1.19

CCCCCCc1ccc2nc(N(C)CC(C)C(=O)O)cc(-c3ccc(F)cc3)c2c1 (stereo not drawn) [3-{[4-(4-fluorophenyl)-6-hexylquinolin-2-yl](methyl)amino}-2-methylpropanoic acid]
inhibition at 1085 µM (stock) [1]: 92.3% | fold induction at 10 µM [2]: 1.31

CN(CC(=O)O)c1cc(-c2ccccc2)c2cc(CCc3ccc4cccnc4c3)ccc2n1 [2-[methyl({4-phenyl-6-[2-(quinolin-7-yl)ethyl]quinolin-2-yl})amino]acetic acid]
inhibition at 1085 µM (stock) [1]: 43.5% | fold induction at 10 µM [2]: 1.25

CCCCCCCc1ccc2nc(N(C)CC(=O)O)cc(-c3ccc(F)cc3)c2c1 [2-([4-(4-fluorophenyl)-6-heptylquinolin-2-yl](methyl)amino}acetic acid]
inhibition at 1085 µM (stock) [1]: 75.6% | fold induction at 10 µM [2]: 1.25

CCCCc1ccc2nc(N(C)CC(=O)O)cc(-c3cccc(C)c3)c2c1 [2-{[6-butyl-4-(3-methylphenyl)quinolin-2-yl](methyl)amino}acetic acid]
inhibition at 1085 µM (stock) [1]: 82.4% | fold induction at 10 µM [2]: 1.4

NC(=O)c1cccc(-c2cc(OCC(=O)O)nc3ccc(Br)cc23)c1 [2-{[6-bromo-4-(3-carbamoylphenyl)quinolin-2-yl]oxy}acetic acid]
inhibition at 1085 µM (stock) [1]: 19.1% | fold induction at 10 µM [2]: 1

CN(CC(=O)O)c1cc(-c2ccccc2)c2ccc(Br)cc2n1 [2-[(7-bromo-4-phenylquinolin-2-yl)(methyl)amino]acetic acid]
inhibition at 1085 µM (stock) [1]: 84.5% | fold induction at 10 µM [2]: 1.19

CCCCCCc1ccc2nc(N(C)CC(=O)O)cc(-c3cccnc3)c2c1 [2-{[6-hexyl-4-(pyridin-3-yl)quinolin-2-yl](methyl)amino}acetic acid]
inhibition at 1085 µM (stock) [1]: 71.3% | fold induction at 10 µM [2]: 1.28

CCCCc1ccc2nc(N3CCCCC3)cc(-c3ccccc3)c2c1 [6-butyl-4-phenyl-2-(piperidin-1-yl)quinoline]
inhibition at 1085 µM (stock) [1]: 56.5% | fold induction at 10 µM [2]: 0.99

CCc1ccc2nc(OCC(=O)O)cc(-c3cccc(C(N)=O)c3)c2c1 [2-{[4-(3-carbamoylphenyl)-6-ethylquinolin-2-yl]oxy}acetic acid]
inhibition at 1085 µM (stock) [1]: 30.4% | fold induction at 10 µM [2]: 0.93

CN(CC(=O)O)c1cc(-c2ccccc2)c2cc(CCCc3ccccc3)ccc2n1 [2-{methyl[4-phenyl-6-(3-phenylpropyl)quinolin-2-yl]amino}acetic acid]
inhibition at 1085 µM (stock) [1]: 97% | fold induction at 10 µM [2]: 1.31

CN(CC(=O)O)c1cc(-c2ccccc2)c2cc(CCc3ccccc3Cl)ccc2n1 [2-({6-[2-(2-chlorophenyl)ethyl]-4-phenylquinolin-2-yl}(methyl)amino)acetic acid]
inhibition at 1085 µM (stock) [1]: 30.1% | fold induction at 10 µM [2]: 1.26

CCCCCCc1ccc2nc(N3CCCCC3)cc(-c3ccccc3)c2c1 [6-hexyl-4-phenyl-2-(piperidin-1-yl)quinoline]
inhibition at 1085 µM (stock) [1]: 46.3% | fold induction at 10 µM [2]: 1.18

CCCCc1ccc2nc(N(C)CC(=O)O)cc(-c3cccnc3)c2c1 [2-{[6-butyl-4-(pyridin-3-yl)quinolin-2-yl](methyl)amino}acetic acid]
inhibition at 1085 µM (stock) [1]: 39.2% | fold induction at 10 µM [2]: 1.19

CN(CC(=O)O)c1cc(-c2ccccc2)c2cc(CCc3cccc(Cl)c3)ccc2n1 [2-({6-[2-(3-chlorophenyl)ethyl]-4-phenylquinolin-2-yl}(methyl)amino)acetic acid]
inhibition at 1085 µM (stock) [1]: 57.1% | fold induction at 10 µM [2]: 1.47

CCCCc1ccc2nc(OC(C)C(=O)O)cc(-c3cccc(C#N)c3)c2c1 (stereo not drawn) [2-{[6-butyl-4-(3-cyanophenyl)quinolin-2-yl]oxy}propanoic acid]
inhibition at 1085 µM (stock) [1]: 12.7% | fold induction at 10 µM [2]: 1.26

CCCCc1ccc2nc(N(C)C(C)CC(=O)O)cc(-c3ccccc3)c2c1 (stereo not drawn) [3-[(6-butyl-4-phenylquinolin-2-yl)(methyl)amino]butanoic acid]
inhibition at 1085 µM (stock) [1]: 103% | fold induction at 10 µM [2]: 1.04

CCCCc1ccc2nc(N3CCOC(C(=O)O)C3)cc(-c3ccccc3)c2c1 (stereo not drawn) [4-(6-butyl-4-phenylquinolin-2-yl)morpholine-2-carboxylic acid]
inhibition at 1085 µM (stock) [1]: 21.1% | fold induction at 10 µM [2]: 1.07

CCCCCCc1ccc2nc(N3CCOC(C(=O)O)C3)cc(-c3ccccc3)c2c1 (stereo not drawn) [4-(6-hexyl-4-phenylquinolin-2-yl)morpholine-2-carboxylic acid]
inhibition at 1085 µM (stock) [1]: 36.1% | fold induction at 10 µM [2]: 1.22

CN(CC(=O)O)c1cc(-c2ccccc2)c2cc(CCc3cnc4ccccc4n3)ccc2n1 [2-[methyl({4-phenyl-6-[2-(quinoxalin-2-yl)ethyl]quinolin-2-yl})amino]acetic acid]
inhibition at 1085 µM (stock) [1]: 33.6% | fold induction at 10 µM [2]: 1.28

CN(CC(=O)O)c1cc(-c2cccc(C#N)c2)c2cc(Br)ccc2n1 [2-{[6-bromo-4-(3-cyanophenyl)quinolin-2-yl](methyl)amino}acetic acid]
inhibition at 1085 µM (stock) [1]: 91.1% | fold induction at 10 µM [2]: 1.16

CN(CC(=O)O)c1cc(-c2ccccc2)c2cc(CCc3ncccn3)ccc2n1 [2-[methyl({4-phenyl-6-[2-(pyrimidin-2-yl)ethyl]quinolin-2-yl})amino]acetic acid]
inhibition at 1085 µM (stock) [1]: < 0% | fold induction at 10 µM [2]: 1.35

CCCCCCc1ccc2nc(N(C)CC(=O)O)ccc2c1 [2-[(6-hexylquinolin-2-yl)(methyl)amino]acetic acid]
inhibition at 1085 µM (stock) [1]: 53.3% | fold induction at 10 µM [2]: 1.15

CCc1ccc2nc(OCC(=O)O)cc(-c3ccccc3)c2c1 [2-[(6-ethyl-4-phenylquinolin-2-yl)oxy]acetic acid]
inhibition at 1085 µM (stock) [1]: 31.9% | fold induction at 10 µM [2]: 0.97

CCCCc1ccc2nc(N(C)CC(=O)O)cc(-c3ccccc3C)c2c1 [2-{[6-butyl-4-(2-methylphenyl)quinolin-2-yl](methyl)amino}acetic acid]
inhibition at 1085 µM (stock) [1]: 99.7% | fold induction at 10 µM [2]: 1.27

CCCc1ccc2nc(N(C)CC(=O)O)cc(-c3cccc(C(N)=O)c3)c2c1 [2-{[4-(3-carbamoylphenyl)-6-propylquinolin-2-yl](methyl)amino}acetic acid]
inhibition at 1085 µM (stock) [1]: 48% | fold induction at 10 µM [2]: 1.07
